# Results as given in patent US20230365546A1, “5-SUBSTITUTED INDOLE 3-AMIDE DERIVATIVES, PREPARATION METHOD AND USE THEREOF” (ORIGIANT PHARMACEUTICAL CO., LTD, priority 2020, published 2023).
# Where two headings read alike, the source gives them in different places.
# Experiments:
# [1] = system: RIPK1 autophosphorylation, phosphorylation of RIPK3 and MLKL; experiment: Regulation of RIPK1 signaling pathway (Western blot); type: cell-based; settings: TNF α/Smac mimetic/Z-VAD-FMK induced, FIG. 4
# Source text: TNF α was purchased from PeproTech Inc., Smac mimetic and Z-VAD-FMK was purchased from Selleck Inc., RIPA lysis buffer was purchased from Beyotime Institute of Biotechnology, cocktail was purchased from MedChemExpress (MCE) Limited, PMSF protease inhibitors, sodium dodecylsulfonate SDS, and glycine were purchased from Sigma Inc., acrylamide, tris(hydroxymethyl)aminomethane Tris, ammonium persulfate APS and N,N,N′,N′-tetramethyl ethylenediamine TEMED were purchased from Wuhan Servicebio Technology Co., Ltd.
# Extraction of total cellular protein: after the cells were treated by adding the corresponding concentration of Compounds 94 and 46 or blank vehicle to the cell supernatant and induced with TNF α/Smac mimetic/Z-VAD-FMK combination for a certain period of time, the supernatant was discarded, followed by washing three times with pre-cooled PBS or normal saline, then an appropriate volume of RIPA lysis buffer (containing 1% cocktail and 1% PMSF protease inhibitor) was added, the mixture was immediately placed on ice horizontally for lysis of 15 min, then the cell lysis buffer was scraped with a scraper and transferred to a 1.5 ml EP tube, and the cells were disrupted with a sonicator. The tubes were then centrifuged in a low temperature high speed centrifuge (12000 rpm, 15 min) to remove cell debris. […]
# RIPK1 = RIPK1 (Homo sapiens (Human), UniProt Q13546); experiment: In vitro kinase assay (Eurofins Kinase Profiler), IC50; type: biochemical; settings: 0.001-10 μM, read-out: RIPK 1 (IC50)
# Procedure: In vitro kinase assays were conducted using Kinase Profiler services provided by Eurofins. The experimental method was as follows: the small molecule compound to be tested (0.001-10 μM), the protein kinase to be tested were incubated with a buffer containing substrate, 10 mM magnesium acetate, and [γ-^33P-ATP], the reaction was started by adding Mg\TPmix, after incubation for a period of time at room temperature, a 3% phosphate solution was added to the buffer to stop the reaction. Subsequently, 10 μL of the reaction mixture was quantitatively pipetted onto P30 filter paper, which was washed three times with 75 mM phosphate solution and then once with methanol. The P30 filter paper was air-dried and scintillation fluid was added for scintillation counting.
# TNF α-induced SIRS = experiment: TNF α-induced mouse SIRS model; type: in vivo; settings: 40 mg/kg oral once before TNF α 500 μg/kg i.v.
# Procedure: TNF α formulated in sterile normal saline was administered at a dose of 500 μg/kg by tail vein injection for modeling. The body temperature of the mice was measured by an infrared electric thermometer. The orally-administrated vehicle was 25% castor oil in ethanol and 75% normal saline. Compounds 94 and 46 and RIPK1 positive compound GSK2982772 were administered orally before modeling with a dose of 40 mg/kg. Body temperature and the survival of mice were recorded every hour and recorded for 24 h and 48 h after 11 h.
# This experiment established a TNF α-induced SIRS mouse model to evaluate the in vivo activity of compounds of the present invention. TNF α formulated in sterile normal saline was administered to mice at a dose of 500 μg/kg by tail vein injection for modeling. Since the measurement of rectal temperature would cause mechanical injury to mice and may interfere with the experimental results, an infrared electric thermometer was used to measure the body temperature of mice and the survival condition was observed. Compounds 94 and 46 were administered at a dose of 40 mg/kg once prior to modeling. The Vehicle group was given the corresponding vehicle control.
# HT-29 cells = experiment: Protection against programmed necrosis of HT-29 cells (TNF α/Smac mimetic/Z-VAD-FMK, CCK8); type: cell-based; settings: Homo sapiens
# [2] = In vivo pharmacokinetic study in rats; settings: rat, plasma, oral, 10 mg/kg
# Procedure: Blood was collected from rats at different times after administration at the following time points: 0.083 h, 0.25 h, 0.5 h, 1 h, 2 h, 4 h, 8 h, and 24 h after intravenous administration; 0.25 h, 0.5 h, 1 h, 2 h, 4 h, 6 h, 8 h, and 24 h after oral administration. About 0.20 mL of blood was collected via jugular vein or other suitable means for each sample at the corresponding time, with heparin sodium for anticoagulation; the blood sample was placed on ice after collection and centrifuged within 1 h to separate the plasma (centrifugation conditions: centrifugal force 6800 g, 6 min, 2-8° C.). The collected plasma samples were stored in a refrigerator at −80° C. before analysis, and the remaining plasma samples continued to be temporarily stored in the refrigerator at −80° C. for one month after analysis.
# Pharmacokinetic parameters such as AUC (0-t), T1/2, Cmax, Tmax, and MRT were calculated using WinNonlin based on plasma concentration data at different time points. The plasma drug concentration-time curve was plotted with BLQ recorded as 0. For the calculation of pharmacokinetic parameters, the concentration before administration was calculated as 0; BLQ before Cmax (including “No peak”) was calculated as 0; no BLQ (including “No peak”) appeared after Cmax participated in the calculation. The experiment was completed by Shanghai Medicilon Inc.
# DSS-induced colitis = experiment: DSS-induced mouse IBD model; settings: 40 mg/kg oral from day 7 after 2.5% DSS
# Procedure: Female C57BL/6 mice weighing 17-20 g were used. […] Fresh DSS solution was changed on Days 2, 4, and 6, respectively. […] The Control group was given normal drinking water daily and corresponding vehicles orally starting on day 7. Body weights and survival rates of mice were recorded daily. Survival curves were fitted using Graphpad Prism 5.0 software. Mice (2/group) were sacrificed on day 12 and observed for changes in colon length.
# [3] = TNF α/Smac mimetic/Z-VAD-FMK induced 24 h, CCK8, read-out: HT-29 (EC50)
# RIPK1, sequence (Q13546 whole entry): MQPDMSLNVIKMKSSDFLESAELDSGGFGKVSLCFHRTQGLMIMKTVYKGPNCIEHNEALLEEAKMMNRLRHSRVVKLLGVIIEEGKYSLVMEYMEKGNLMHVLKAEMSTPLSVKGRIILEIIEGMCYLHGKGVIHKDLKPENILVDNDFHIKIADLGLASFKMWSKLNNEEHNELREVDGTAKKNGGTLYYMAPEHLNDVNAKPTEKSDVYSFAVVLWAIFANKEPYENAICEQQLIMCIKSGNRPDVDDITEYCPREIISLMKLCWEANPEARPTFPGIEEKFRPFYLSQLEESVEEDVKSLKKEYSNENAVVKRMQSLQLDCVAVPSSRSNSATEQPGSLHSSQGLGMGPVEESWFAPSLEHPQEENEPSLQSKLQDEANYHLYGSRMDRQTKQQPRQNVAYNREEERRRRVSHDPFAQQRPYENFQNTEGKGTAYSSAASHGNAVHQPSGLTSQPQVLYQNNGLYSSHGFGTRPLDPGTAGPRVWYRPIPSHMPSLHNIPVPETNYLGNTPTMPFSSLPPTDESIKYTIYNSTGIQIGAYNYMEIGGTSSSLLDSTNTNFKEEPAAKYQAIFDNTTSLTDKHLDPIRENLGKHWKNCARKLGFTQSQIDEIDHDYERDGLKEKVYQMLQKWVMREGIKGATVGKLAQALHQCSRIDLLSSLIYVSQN
Compound,IC50 (RIPK1) [nM],EC50 (HT-29 cells; [3]) [nM],also measured
C[C@H](NC(=O)c1cn(C)c2ccc(-c3ccc4nc(NC(=O)C5CC5)sc4c3)cc12)c1cccc(F)c1 [Compound 46],10 to 100,< 1,"Effect on necrotic signaling pathway (RIPK1 autophosphorylation, RIPK3 and MLKL phosphorylation) [1]: affected the phosphorylation of RIPK3 and MLKL downstream of RIPK1 by inhibiting its autophosphorylation; Overall mortality (TNF α-induced SIRS; compared with Vehicle group): significantly reduced; Body temperature of mice (TNF α-induced SIRS; within 11 h): relatively normal; EC50 (HT-29 cells; TSZ-induced, FIG. 3, read-out: EC50 value, programmed necrosis model of HT-29): 0.07 nM"
Cn1cc(C(=O)N2CCC[C@H]2c2ccc(F)cc2)c2cc(-c3ccn4nc(NC(=O)C5CC5)nc4c3)ccc21 [Compound 174],1 to 10,< 1,AUC(0-t) [2]: 11500 ng·h/mL; Cmax [2]: 3840 ng/mL; Tmax [2]: 0.42 h; bioavailability [2]: 35%; half-life [2]: 1.99 h
GSK3145095 [reference compound],,,Death of mice (DSS-induced colitis): occurrence of murine death; Body weight of mice (DSS-induced colitis; FIG. 6): continuous declination in body weight
Cn1cc(C(=O)N2CCC[C@H]2c2cccc(Cl)c2)c2cc(-c3ccn4nc(NC(=O)C5CC5)nc4c3)ccc21 [Compound 193],10 to 100,10 to 100,AUC(0-t) [2]: 14800 ng·h/mL; Cmax [2]: 2880 ng/mL; Tmax [2]: 2.25 h; bioavailability [2]: 31.7%; half-life [2]: 2.74 h
Cn1cc(C(=O)N2CCCC2c2cccc(F)c2)c2cc(-c3ccn4nc(NC(=O)C5CC5)nc4c3)ccc21 (stereo not drawn) [Compound 168],10 to 100,< 1,AUC(0-t) [2]: 15300 ng·h/mL; Cmax [2]: 6360 ng/mL; Tmax [2]: 0.33 h; bioavailability [2]: 60.9%; half-life [2]: 3.1 h
Cn1cc(C(=O)N2CCC[C@H]2c2ccc(F)c(F)c2)c2cc(-c3ccn4nc(NC(=O)C5CC5)nc4c3)ccc21 [Compound 191],< 1,< 1,AUC(0-t) [2]: 4560 ng·h/mL; Cmax [2]: 2130 ng/mL; Tmax [2]: 0.33 h; bioavailability [2]: 20.4%; half-life [2]: 4.67 h
Cn1cc(C(=O)N[C@H]2CCc3ccc(F)cc32)c2cc(-c3ccn4nc(NC(=O)C5CC5)nc4c3)ccc21 [Compound 183],100 to 1000,100 to 1000,
C[C@H](NC(=O)c1cn(C)c2ccc(-c3ccn4nc(NC(=O)C5(F)CC5)nc4c3)cc12)c1cccc(F)c1 [Compound 145],1 to 10,< 1,
C[C@H](NC(=O)c1c[nH]c2ncc(-c3ccc4nc(NC(=O)C5CC5)sc4c3)cc12)c1cccc(F)c1 [Compound 62],100 to 1000,1 to 10,
C[C@H](NC(=O)c1c[nH]c2ccc(-c3ccn4nc(NC(=O)C5CC5)nc4c3)cc12)c1cccc(F)c1 [Compound 82],10 to 100,100 to 1000,
O=C(NCc1cc(F)cc(F)c1)c1c[nH]c2ccc(-c3ccc4nc(NC(=O)C5CC5)sc4c3)cc12 [Compound 3],10 to 100,10 to 100,
[2H]C([2H])([2H])n1cc(C(=O)N[C@H](c2ccc(F)cc2)C2CC2)c2cc(-c3ccn4nc(NC(=O)C5CC5)nc4c3)ccc21 [Compound 206],1 to 10,< 1,
COc1ccc(NC(=O)c2c[nH]c3ncc(-c4ccc5nc(NC(=O)C6CC6)sc5c4)cc23)cc1OC [Compound 63],10 to 100,10 to 100,
C[C@H](NC(=O)c1c[nH]c2ccc(-c3ccc4nc(NC(=O)C5CCCCC5)sc4c3)cc12)c1cccc(F)c1 [Compound 49],10 to 100,10 to 100,
C[C@H]1CC[C@@H](c2ccc(F)cc2)N1C(=O)c1cn(C)c2ccc(-c3ccn4nc(NC(=O)C5CC5)nc4c3)cc12 [Compound 213],1 to 10,< 1,
C[C@H](NC(=O)c1cn(C)c2ccc(-c3ccc4c(NC(=O)C5CC5)c[nH]c4c3)cc12)c1cccc(F)c1 [Compound 117],10 to 100,10 to 100,
C[C@H](NC(=O)c1c[nH]c2ccc(-c3cnc(NC(=O)C4CC4)nc3)cc12)c1cccc(F)c1 [Compound 43],≥ 1000,≥ 1000,
CC(C)C(=O)Nc1nc2ccc(-c3ccc4[nH]cc(C(=O)N[C@@H](C)c5cccc(F)c5)c4c3)cc2s1 [Compound 55],10 to 100,1 to 10,
CC(C)n1cc(C(=O)N[C@@H](C)c2cccc(F)c2)c2cc(-c3ccc4c(NC(=O)C5CC5)n[nH]c4c3)ccc21 [Compound 112],10 to 100,1 to 10,
O=C(NCc1ccco1)c1c[nH]c2ccc(-c3ccc4nc(NC(=O)C5CC5)sc4c3)cc12 [Compound 17],10 to 100,10 to 100,
CCCCn1cc(C(=O)N[C@@H](C)c2cccc(F)c2)c2cc(-c3ccn4nc(NC(=O)C5CC5)nc4c3)ccc21 [Compound 152],10 to 100,10 to 100,
[2H]C([2H])([2H])n1cc(C(=O)N[C@@H](CC)c2ccc(F)cc2)c2cc(-c3ccn4nc(NC(=O)C5CC5)nc4c3)ccc21 [Compound 208],10 to 100,< 1,
O=C(NCc1ccc(F)cc1F)c1c[nH]c2ncc(-c3ccc4nc(NC(=O)C5CC5)sc4c3)cc12 [Compound 80],100 to 1000,10 to 100,
O=C(NCc1ccc(F)cc1)c1c[nH]c2ccc(-c3ccc4nc(NC(=O)C5CC5)sc4c3)cc12 [Compound 6],100 to 1000,10 to 100,
C[C@H](NC(=O)c1cn(C)c2ccc(-c3ccc4c(NC(=O)C5CC5)n[nH]c4c3)cc12)c1cccc(F)c1 [Compound 104],1 to 10,< 1,
Cn1cc(C(=O)N[C@@H](CO)c2ccc(F)cc2)c2cc(-c3ccn4nc(NC(=O)C5CC5)nc4c3)ccc21 [Compound 203],10 to 100,< 1,
CCn1cc(C(=O)N[C@@H](C)c2cccc(F)c2)c2cc(-c3ccn4nc(NC(=O)C5CC5)nc4c3)ccc21 [Compound 149],10 to 100,< 1,
CC(C)C(=O)Nc1nc2cc(-c3cnc4[nH]cc(C(=O)N[C@@H](C)c5cccc(F)c5)c4c3)ccn2n1 [Compound 157],10 to 100,1 to 10,
C[C@H](NC(=O)c1ccc2ncc(-c3ccn4nc(NC(=O)C5CC5)nc4c3)cc2c1)c1cccc(F)c1 [Compound 160],10 to 100,10 to 100,
Cn1cc(C(=O)NCc2cc(F)ccc2F)c2cc(-c3ccc4nc(NC(=O)C5CC5)sc4c3)ccc21 [Compound 54],10 to 100,< 1,
